Where two headings read alike, the source gives them in different places.
How the values were obtained:
[1] = Plasma pharmacokinetics of Compound 2 in PD participants (LC-MS/MS); format: in vivo, human; settings: plasma, plasma; for AUC(0-t) / Cmax / Tmax: human, po, 15 mg; for Tmax: read-out: tmax, median
Procedure: Participants were randomised to 3 doses of once-daily orally administered Compound 2 or placebo, in sequential cohort design, and were followed up to 36 weeks (52 weeks for Japanese participants). Participants in the low-dose group received 4 mg of Compound 2 as a once daily oral dose; participants in the mid-dose group received 8 mg of Compound 2 a once daily oral dose; and participants in the high-dose group received 15 mg of Compound 2 a once daily oral dose.
Analyses were based on all available data from participants who enrolled in part 1 of the trial and were randomised to receive either Compound 2 or placebo for up to 52 weeks for Japanese participants and 36 weeks for the ROW population. As part 1 was an exploratory, dose-escalation study, the sample size was not based on a statistical power calculation. Participants included in the primary safety analyses were those who were randomized and received at least one dose of Compound 2 or placebo. A data monitoring committee was responsible for overseeing the safety of patients and the risk/benefit ratio throughout the study. Duration of exposure to Compound 2 was different among the doses, as per the sequential cohort design, with the low- and high-dose cohorts commencing the study first and last, respectively. For pharmacokinetics, plasma parameters were calculated using noncompartmental methods, from plasma Compound 2 concentrations obtained after single dose administration. AUC0-24 and AUC0-48 were calculated using the trapezoidal method over a predefined time period of 24 hours or 48 hours, respectively. CLss/F was calculated using the following equation: CLss/F=Dose/AUCτ, where τ is the dosing interval. For pharmacodynamics, percent reduction of plasma or CSF GL-1 from baseline was calculated as (value−baseline)/baseline×100. Formal statistical testing was not conducted on MDS-UPDRS scale assessments.
The secondary outcome was to evaluate the pharmacokinetic profile of Compound 2 in plasma and cerebrospinal fluid (CSF) over a 4-week period. Plasma pharmacokinetic parameters included maximum plasma concentration (Cmax), time to Cmax (tmax), and area under the plasma concentration versus time curve from 0 to 24 h (AUC0-24). All parameters were assessed at Week 0 and Week 4 after treatment. In addition, AUC0-48 was assessed at Week 0, trough plasma concentration observed just before treatment administration during repeated dosing (Ctrough) was assessed at Weeks 2, 4, and 8 (FIG. 3), and total systemic clearance from plasma at steady state (CLSS/F) was assessed at Week 4. Plasma samples were collected at 1 hour pre-dose and 1, 2, 4, 8, 24, and 48 hours postdose. Compound 2 concentration in plasma was determined using a liquid chromatography tandem mass spectrometry method with a lower limit of quantification of 0.500 ng/mL. CSF samples were collected by lumbar puncture during the screening period (within 14 days prior to randomisation) or on the day of randomisation, and at Week 4, within 2 to 4 hours postdose. Compound 2 concentration in CSF was determined using a liquid chromatography tandem mass spectrometry method with a lower limit of quantification of 0.100 ng/mL.

[2] = system: participants with early-stage PD carrying a GBA mutation; assay: MDS-UPDRS (parts II and III) scores in OFF state; format: in vivo, human; settings: Combined Japan + ROW, all Compound 2 doses, N = 22, OFF state
Procedure: MDS-UPDRS (parts II [motor experiences of daily living; 13 items] and III [motor examination; 18 items]) scores are reported through Week 8. The MDS-UPDRS scale was assessed during the OFF state, with no PD medication taken for ≥12 hours prior.
The changes from baseline in MDS-UPDRS (parts II and III) scores at week 8 were assessed for participants in part 1 of the clinical study described in Example 2.

[3] = Day 1, Japan, High 15 mg oral, n = 3
[4] = Week 4, ROW, High 15 mg once daily oral, n = 4
[5] = Week 4, Japan, High 15 mg once daily oral, n = 2
[6] = Week 4, Japan, High 15 mg vs Low 4 mg
[7] = Week 4, Japan, Low 4 mg once daily oral, n = 1
[8] = Week 4, Japan, Mid 8 mg once daily oral, n = 3
[9] = Week 4, Japan, Mid 8 mg vs Low 4 mg
[10] = Week 4, ROW, High 15 mg vs Low 4 mg
[11] = Week 4, ROW, Low 4 mg once daily oral, n = 4
[12] = Week 4, ROW, Mid 8 mg once daily oral, n = 5
[13] = Week 4, ROW, Mid 8 mg vs Low 4 mg

## CC(C)(NC(=O)O[C@@H]1CN2CCC1CC2)c1csc(-c2ccc(F)cc2)n1 [Compound 2, (S)-quinuclidin-3-yl (2-(2-(4-fluorophenyl)thiazol-4-yl)propan-2-yl)carbamate]
[1]; Day 1, Japan, High 15 mg oral, n = 3, read-out: AUC0-24, Geometric mean
  AUC(0-t): 0.977 µg·h/mL
[1]; Day 1, Japan, High 15 mg oral, n = 3, read-out: AUC0-24, mean
  AUC(0-t): 0.99 µg·h/mL
[1]; Day 1, Japan, High 15 mg oral, n = 3, read-out: AUC0-48, Geometric mean
  AUC(0-t): 1.57 µg·h/mL
[1]; Day 1, Japan, High 15 mg oral, n = 3, read-out: AUC0-48, mean
  AUC(0-t): 1.59 µg·h/mL
[1]; Day 1, Japan, High 15 mg oral, n = 3, read-out: Cmax, mean
  Cmax: 0.0541 µg/mL
[1]; [3]
  Tmax: 4.1 h
  Cmax, Geometric mean: 0.0533 µg/mL
[1]; Day 1, ROW, High 15 mg oral, n = 4, read-out: AUC0-24, Geometric mean
  AUC(0-t): 0.868 µg·h/mL
[1]; Day 1, ROW, High 15 mg oral, n = 4, read-out: AUC0-24, mean
  AUC(0-t): 0.873 µg·h/mL
[1]; Day 1, ROW, High 15 mg oral, n = 4, read-out: AUC0-48, Geometric mean
  AUC(0-t): 1.44 µg·h/mL
[1]; Day 1, ROW, High 15 mg oral, n = 4, read-out: AUC0-48, mean
  AUC(0-t): 1.45 µg·h/mL
[1]; Day 1, ROW, High 15 mg oral, n = 4, read-out: Cmax, Geometric mean
  Cmax: 0.0471 µg/mL
[1]; Day 1, ROW, High 15 mg oral, n = 4, read-out: Cmax, mean
  Cmax: 0.0474 µg/mL
[1]; Day 1, ROW, High 15 mg oral, n = 4
  Tmax: 3.94 h
[1]; Week 4, Japan, High 15 mg once daily oral, n = 2, read-out: AUC0-24, Geometric mean
  AUC(0-t): 3.14 µg·h/mL
[1]; Week 4, Japan, High 15 mg once daily oral, n = 2, read-out: AUC0-24, mean
  AUC(0-t): 3.15 µg·h/mL
[1]; Week 4, Japan, High 15 mg once daily oral, n = 3, read-out: Cmax, Geometric mean
  Cmax: 0.144 µg/mL
[1]; Week 4, Japan, High 15 mg once daily oral, n = 3, read-out: Cmax, mean
  Cmax: 0.145 µg/mL
[1]; Week 4, Japan, High 15 mg once daily oral, n = 3
  Tmax: 2.1 h
[1]; Week 4, ROW, High 15 mg once daily oral, n = 4, read-out: AUC0-24, Geometric mean
  AUC(0-t): 2.49 µg·h/mL
[1]; Week 4, ROW, High 15 mg once daily oral, n = 4, read-out: AUC0-24, mean
  AUC(0-t): 2.51 µg·h/mL
[1]; Week 4, ROW, High 15 mg once daily oral, n = 4, read-out: Cmax, Geometric mean
  Cmax: 0.135 µg/mL
[1]; Week 4, ROW, High 15 mg once daily oral, n = 4, read-out: Cmax, mean
  Cmax: 0.136 µg/mL
[1]; [4]
  Tmax: 2.89 h
  CLss/F, Geometric mean: 6030 mL/h
  CLss/F, mean: 6100 mL/h
[1]; [5]
  CLss/F, Geometric mean: 4770 mL/h
  CLss/F, mean: 4780 mL/h
[1]; [6]
  AUC0-24, Fold increase vs low dose: 2.78 fold
  CLss/F, Fold increase vs low dose: 1.35 fold
  Cmax (geometric mean), Fold increase vs low-dose: 2.56 fold
[1]; [7]
  CLss/F, Geometric mean: 3540 mL/h
  CLss/F, mean: 3540 mL/h
[1]; [8]
  CLss/F, Geometric mean: 4930 mL/h
  CLss/F, mean: 5010 mL/h
  Cmax, mean: 0.0837 µg/mL
[1]; [9]
  AUC0-24, Fold increase vs low dose: 1.43 fold
  CLss/F, Fold increase vs low dose: 1.39 fold
  Cmax (geometric mean), Fold increase vs low-dose: 1.47 fold
[1]; [10]
  AUC0-24, Fold increase vs low dose: 3.26 fold
  CLss/F, Fold increase vs low dose: 1.15 fold
  Cmax (geometric mean), Fold increase vs low-dose: 3.29 fold
[1]; [11]
  CLss/F, Geometric mean: 5240 mL/h
  CLss/F, mean: 5270 mL/h
[1]; [12]
  CLss/F, Geometric mean: 5370 mL/h
  CLss/F, mean: 5450 mL/h
[1]; [13]
  AUC0-24, Fold increase vs low dose: 1.95 fold
  CLss/F, Fold increase vs low dose: 1.02 fold
  Cmax (geometric mean), Fold increase vs low-dose: 1.85 fold
[1]; Weeks 2, 4, and 8 (FIG. 3)
  Ctrough versus dose: increased in a dose-proportional manner
[2]
  MDS-UPDRS (part II + III) score, Change from baseline at week 8 (mean): −2.9

Source: US20230372313A1, “METHODS FOR REDUCING GLYCOSPHINGOLIPID CONCENTRATION IN BRAIN TISSUE AND METHODS OF TREATMENT OF NEURODEGENERATIVE DISEASES INVOLVING THE SAME” (GENZYME CORPORATION, priority 2020, published 2023)
